Experimental data published in patent US12077503B2, “Substituted cyclic amides and their use as herbicides” (FMC CORPORATION, priority 2015, dated 2024).

How the values were obtained:
Assay type in all cases: in vivo
corn (Zea mays) = test: Test A postemergence
Method in brief: (§1)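 Preemergence soil spray on seeded pots or post-emergence spray on 1–2 leaf plants, in loam–sand blend. Greenhouse ~10 d. Visual rating 0–100 against untreated plants.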

[1] = tested on: giant foxtail (Setaria faberii); test: Test A postemergence
Method in brief: as §1

[2] = tested on: ryegrass, Italian (Italian ryegrass, Lolium multiflorum); test: Test A postemergence
Method in brief: as §1

[3] = tested on: wheat (Triticum aestivum); test: Test A postemergence
Method in brief: as §1

[4] = tested on: ragweed (common ragweed, Ambrosia elatior); test: Test A postemergence
Method in brief: as §1

[5] = tested on: blackgrass (Alopecurus myosuroides); test: Test A postemergence
Method in brief: as §1

[6] = tested on: Galium (catchweed bedstraw, Galium aparine); test: Test A postemergence
Method in brief: as §1

[7] = tested on: barnyardgrass (Echinochloa crus-galli); test: Test A postemergence
Method in brief: as §1

[8] = tested on: pigweed (Amaranthus retroflexus); test: Test A postemergence
Method in brief: as §1

Kochia (Kochia scoparia) [9] = test: Test A postemergence
Method in brief: as §1

[10] = tested on: giant foxtail (Setaria faberii); test: Test A preemergence
Method in brief: as §1

[11] = tested on: ryegrass, Italian (Italian ryegrass, Lolium multiflorum); test: Test A preemergence
Method in brief: as §1

[12] = tested on: ragweed (common ragweed, Ambrosia elatior); test: Test A preemergence
Method in brief: as §1

[13] = tested on: barnyardgrass (Echinochloa crus-galli); test: Test A preemergence
Method in brief: as §1

[14] = tested on: pigweed (Amaranthus retroflexus); test: Test A preemergence
Kochia (Kochia scoparia) [15] = test: Test A preemergence
Method in brief: as §1

rice (Oryra sativa) = test: Test B flooded paddy test; conditions: Flood, 250 g ai/ha; 0 to 100 scale where 0 is no effect and 100 is complete control; 13 to 15 d
Method in brief: (§2)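 Response scored visually against untreated controls, 0 = no effect and 100 = complete control, 13–15 d after treatment in the greenhouse. Compounds added to paddy water held 3 cm above soil surface. Treatment given at 2-leaf stage.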

[16] = tested on: sedge, umbrella (small-flower umbrella sedge, Cyperus difformis); test: Test B flooded paddy test; conditions: Flood, 250 g ai/ha; 0 to 100 scale where 0 is no effect and 100 is complete control; 13 to 15 d
Method in brief: as §2

[17] = tested on: barnyardgrass (Echinochloa crus-galli); test: Test B flooded paddy test; conditions: Flood, 250 g ai/ha; 0 to 100 scale where 0 is no effect and 100 is complete control; 13 to 15 d
Method in brief: as §2

[18] = tested on: ducksalad (Heteranthera limosa); test: Test B flooded paddy test; conditions: Flood, 250 g ai/ha; 0 to 100 scale where 0 is no effect and 100 is complete control; 13 to 15 d
Method in brief: as §2

[19] = 125 g ai/ha, postemergence, visual rating after approx. 10 d, 0 to 100 scale (0 no effect, 100 complete control)
[20] = Postemergence, 500 g ai/ha, 0 to 100 scale where 0 is no effect and 100 is complete control
[21] = 125 g ai/ha, Preemergence, visual injury after approximately 10 d, 0 to 100 scale where 0 is no effect and 100 is complete control
[22] = 500 g ai/ha, preemergence, 0 to 100 scale, 0 = no effect, 100 = complete control

## CN1CC(c2cccc(OC(F)F)c2)C(C(=O)Nc2ccc(F)cc2F)C1=O (stereo not drawn) [Compound 617]
Corn (Zea mays); [19]
  Plant response rating, Corn: 80
Corn (Zea mays); [20]
  Plant response rating, Corn: 80
[1]; [19]
  Plant response rating, Foxtail, Giant: 90
[1]; [20]
  Plant response rating, Foxtail, Giant: 90
[2]; [19]
  Plant response rating, Ryegrass, Italian: 20
[2]; [20]
  Plant response rating, Ryegrass, Italian: 50
[3]; [19]
  Plant response rating, Wheat: 50
[3]; [20]
  Plant response rating, Wheat: 60
[4]; [19]
  Plant response rating, Ragweed: 20
[4]; [20]
  Plant response rating, Ragweed: 50
[5]; [19]
  Plant response rating, Blackgrass: 40
[5]; [20]
  Plant response rating, Blackgrass: 60
[6]; [19]
  Plant response rating, Galium: 60
[6]; [20]
  Plant response rating, Galium: 60
[7]; [19]
  Plant response rating, Barnyardgrass: 90
[7]; [20]
  Plant response rating, Barnyardgrass: 90
[8]; [19]
  Plant response rating, Pigweed: 30
[8]; [20]
  Plant response rating, Pigweed: 50
Kochia (Kochia scoparia) [9]; [19]
  Plant response rating, Kochia: 50
Kochia (Kochia scoparia) [9]; [20]
  Plant response rating, Kochia: 60
[10]; [21]
  Plant response rating, Foxtail, Giant: 90
[10]; [22]
  Plant response rating, Foxtail, Giant: 100
[11]; [21]
  Plant response rating, Ryegrass, Italian: 70
[11]; [22]
  Plant response rating, Ryegrass, Italian: 90
[12]; [21]
  Plant response rating, Ragweed: 30
[12]; [22]
  Plant response rating, Ragweed: 60
[13]; [21]
  Plant response rating, Barnyardgrass: 90
[13]; [22]
  Plant response rating, Barnyardgrass: 90
[14]; [21]
  Plant response rating, Pigweed: 90
[14]; [22]
  Plant response rating, Pigweed: 90
Kochia (Kochia scoparia) [15]; [21]
  Plant response rating, Kochia: 70
Kochia (Kochia scoparia) [15]; [22]
  Plant response rating, Kochia: 70
Rice (Oryra sativa)
  Plant response rating, Rice: 10
[16]
  Plant response rating, Sedge, Umbrella: 0
[17]
  Plant response rating, Barnyardgrass: 90
[18]
  Plant response rating, Ducksalad: 100
